Test results from patent US20070128217A1 (priority 2003, published 2007).

Tests used:
[1] = system: rabbit serum obtained by immunizing a rabbit with the SARS-CoV strain Frankfurt 1; assay type: binding; design: Binding of a rabbit serum to linear peptides / Binding of a rabbit serum to looped peptides / Rabbit serum linear peptides / Rabbit serum looped peptides / Binding of a rabbit serum to linear peptides of protein N of SARS-CoV Urbani (Rabbit serum linear peptides) / Binding of a rabbit serum to looped/cyclic peptides of protein N of SARS-CoV Urbani (Rabbit serum looped peptides): unit not given here
[2] = system: antibodies in sera from SARS patients (sera 1a, 1b, 2, 6, 37, 62, London, SARS-yellow, SARS-green); assay type: binding, human; design: Binding of serum 6 to linear peptides of protein X1 of SARS-CoV Urbani / Binding of serum 37 to linear peptides of protein X1 of SARS-CoV Urbani / Binding of serum 6 to looped/cyclic peptide (PEPSCAN-ELISA) / Binding of serum 37 to looped/cyclic peptide (PEPSCAN-ELISA) / Binding of serum 37 to looped/cyclic peptides of protein X1 of SARS-CoV Urbani / Binding of serum 6 to linear peptides of protein X2 / Binding of serum 37 to linear peptides of protein X2 / Binding of serum 37 to looped/cyclic peptides of protein X2 of SARS-CoV Urbani / Binding of serum 6 to linear peptides of protein M of SARS-CoV Urbani / Binding of serum 37 to linear peptides of protein M of SARS-CoV Urbani / Binding of serum 6 to looped/cyclic peptides of protein M of SARS-CoV Urbani / Binding of serum 37 to looped/cyclic peptides of protein M of SARS-CoV Urbani / Binding of serum 6 to linear peptides of protein X3 of SARS-CoV Urbani / Binding of serum 37 to linear peptides of protein X3 of SARS-CoV Urbani / Binding of serum 37 to looped/cyclic peptides of protein X3 of SARS-CoV Urbani / Binding of serum 6 to linear peptides of protein X4 of SARS-CoV Urbani / Binding of serum 37 to linear peptides of protein X4 of SARS-CoV Urbani / Binding of serum 37 to looped/cyclic peptides of protein X4 of SARS-CoV Urbani / Binding of serum 6 to linear peptides of protein X5 of SARS-CoV Urbani / Binding of serum 37 to linear peptides of protein X5 of SARS-CoV Urbani / Binding of serum 37 to looped/cyclic peptides of protein X5 of SARS-CoV Urbani / Binding of serum 6 to linear peptides of protein N of SARS-CoV Urbani / Binding of serum 37 to linear peptides of protein N of SARS-CoV Urbani / Binding of serum 6 to linear peptide (PEPSCAN-ELISA) / Binding of serum 1a to looped/cyclic peptides of protein N of SARS-CoV Urbani / Binding of serum 1b to looped/cyclic peptides of protein N of SARS-CoV Urbani / Binding of serum 2 to looped/cyclic peptides of protein N of SARS-CoV Urbani / Binding of serum 6 to looped/cyclic peptides of protein N of SARS-CoV Urbani / Binding of serum 37 to looped/cyclic peptides of protein N of SARS-CoV Urbani / Binding of serum 62 to looped/cyclic peptides of protein N of SARS-CoV Urbani / Binding of serum London to looped/cyclic peptides of protein N of SARS-CoV Urbani / Binding of serum SARS-green to looped/cyclic peptides of protein N of SARS-CoV Urbani: unit not given here

Sequence | Binding of serum 1a to linear peptides of protein X1 of SARS-CoV Urbani [2] | Binding of serum 1a to looped/cyclic peptide (PEPSCAN-ELISA) [2] | Binding of serum 1b to linear peptides of protein X1 of SARS-CoV Urbani [2] | Binding of serum 1b to looped/cyclic peptide (PEPSCAN-ELISA) [2] | Binding of serum 2 to linear peptides of protein X1 of SARS-CoV Urbani [2] | Binding of serum 2 to looped/cyclic peptide (PEPSCAN-ELISA) [2] | Binding of serum 6 to linear peptides of protein X1 of SARS-CoV Urbani [2] | Binding of serum 6 to looped/cyclic peptide (PEPSCAN-ELISA) [2] | Binding of serum 37 to linear peptides of protein X1 of SARS-CoV Urbani [2] | Binding of serum 37 to looped/cyclic peptide (PEPSCAN-ELISA) [2] | Binding of serum 62 to linear peptides of protein X1 of SARS-CoV Urbani [2] | Binding of serum 62 to looped/cyclic peptide (PEPSCAN-ELISA) [2] | Binding of serum London to linear peptides of protein X1 of SARS-CoV Urbani [2] | Binding of serum London to looped/cyclic peptide (PEPSCAN-ELISA) [2] | Binding of serum SARS-green to linear peptides of protein X1 of SARS-CoV Urbani [2] | Binding of serum SARS-green to looped/cyclic peptide (PEPSCAN-ELISA) [2] | Binding of serum SARS-yellow to linear peptides of protein X1 of SARS-CoV Urbani [2] | Binding of serum SARS-yellow to looped/cyclic peptide (PEPSCAN-ELISA) [2] | Rabbit serum linear peptides [1] | Rabbit serum looped peptides [1] | further results
WQLALYKGFQFICNL | 0.6 | 0.6 | 0.2 | 0.3 | 0.4 | 0.4 | 0.5 | 1.3 | 0.3 | 0.5 | 0.4 | 0.5 | 0.2 | 1.5 | 0.3 | 0.3 | 0.4 | 0.5 |  |  | Binding of a rabbit serum to linear peptides [1]: 0.5; Binding of a rabbit serum to looped peptides [1]: 0.6
IGVAFLAVFQSATKI | 0.6 | 0.5 | 0.5 | 0.4 | 0.6 | 0.4 | 0.5 | 0.3 | 0.6 | 0.5 | 0.6 | 0.6 | 0.2 | 0.2 | 0.2 | 0.2 | 0.3 | 0.3 |  |  | Binding of a rabbit serum to linear peptides [1]: 0.1; Binding of a rabbit serum to looped peptides [1]: 0.6
IIALNKRWQLALYKG | 0.7 | 0.6 | 0.4 | 0.4 | 0.5 | 0.5 | 0.7 | 0.6 | 0.6 | 0.6 | 0.5 | 0.6 | 0.3 | 0.4 | 0.3 | 0.2 | 0.5 | 0.5 |  |  | Recognition of the peptide by the rabbit serum [1]: recognized
QSATKIIALNKRWQL | 0.8 | 0.4 | 0.7 | 0.4 | 0.7 | 0.5 | 0.7 | 0.6 | 0.7 | 0.6 | 0.8 | 0.6 | 0.4 | 0.4 | 0.4 | 0.4 | 0.5 | 0.4 |  |  | Recognition of the peptide by the rabbit serum [1]: recognized
LACFVLAAVYRINWV |  |  |  |  |  |  |  |  |  |  |  |  |  |  |  |  |  |  | 0.3 | 0.2 | Binding of serum 1a to linear peptides of protein M of SARS-CoV Urbani [2]: 0.7; Binding of serum 1a to looped/cyclic peptides of protein M of SARS-CoV Urbani [2]: 0.7; Binding of serum 1b to linear peptides of protein M of SARS-CoV Urbani [2]: 0.7; Binding of serum 1b to looped/cyclic peptides of protein M of SARS-CoV Urbani [2]: 0.5; Binding of serum 2 to linear peptides of protein M of SARS-CoV Urbani [2]: 0.6; Binding of serum 2 to looped/cyclic peptides of protein M of SARS-CoV Urbani [2]: 0.9; Binding of serum 6 to linear peptides of protein M of SARS-CoV Urbani [2]: 0.4; Binding of serum 6 to looped/cyclic peptides of protein M of SARS-CoV Urbani [2]: 0.7; Binding of serum 37 to linear peptides of protein M of SARS-CoV Urbani [2]: 0.5; Binding of serum 37 to looped/cyclic peptides of protein M of SARS-CoV Urbani [2]: 0.6; Binding of serum 62 to linear peptides of protein M of SARS-CoV Urbani [2]: 0.5; Binding of serum 62 to looped/cyclic peptides of protein M of SARS-CoV Urbani [2]: 0.7; Binding of serum London to linear peptides of protein M of SARS-CoV Urbani [2]: 0.4; Binding of serum London to looped/cyclic peptides of protein M of SARS-CoV Urbani [2]: 0.3; Binding of serum SARS-green to linear peptides of protein M of SARS-CoV Urbani [2]: 0.6; Binding of serum SARS-green to looped/cyclic peptides of protein M of SARS-CoV Urbani [2]: 0.3; Binding of serum SARS-yellow to linear peptides of protein M of SARS-CoV Urbani [2]: 0.3; Binding of serum SARS-yellow to looped/cyclic peptides of protein M of SARS-CoV Urbani [2]: 0.4
ITVEELKQLLEQWNL |  |  |  |  |  |  |  |  |  |  |  |  |  |  |  |  |  |  |  |  | Recognition of the peptide by the rabbit serum [1]: recognized
TLGSITAQPVKIDNA |  |  |  |  |  |  |  |  |  |  |  |  |  |  |  |  |  |  |  |  | Binding of a rabbit serum to linear peptides [1]: 0.8; Binding of a rabbit serum to looped peptides [1]: 0.4
KQLLEQWNLVIGFLP |  |  |  |  |  |  |  |  |  |  |  |  |  |  |  |  |  |  | 0.0 | 0.1 | 
IRGHLRMAGHPLGRC |  |  |  |  |  |  |  |  |  |  |  |  |  |  |  |  |  |  | 1.2 | 0.4 | 
EGNSPFHPLADNKFA |  |  |  |  |  |  |  |  |  |  |  |  |  |  |  |  |  |  | 0.7 | 0.7 | 
